# According to patent US20250171438A1 (Agios Pharmaceuticals, Inc., priority 2022, published 2025):
# Target: T1, human PAH with the R408W mutation (Homo sapiens, UniProt P00439, R408W)
# T1 construct: expressed in transfected cells
# T1 sequence (P00439 1-452 R408W): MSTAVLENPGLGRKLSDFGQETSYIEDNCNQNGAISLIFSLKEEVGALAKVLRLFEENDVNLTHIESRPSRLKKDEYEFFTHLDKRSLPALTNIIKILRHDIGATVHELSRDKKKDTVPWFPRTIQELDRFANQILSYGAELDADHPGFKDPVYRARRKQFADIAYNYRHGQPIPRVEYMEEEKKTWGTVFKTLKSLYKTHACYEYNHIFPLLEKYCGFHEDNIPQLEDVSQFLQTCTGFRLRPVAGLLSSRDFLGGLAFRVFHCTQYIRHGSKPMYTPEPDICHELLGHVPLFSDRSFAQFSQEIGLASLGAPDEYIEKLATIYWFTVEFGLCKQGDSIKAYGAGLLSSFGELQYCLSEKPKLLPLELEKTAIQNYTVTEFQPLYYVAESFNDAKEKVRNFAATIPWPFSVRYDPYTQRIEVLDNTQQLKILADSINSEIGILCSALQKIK
# Experiment: Cell Based Phenylalanine Flux Assay
# Conditions: A375 cells expressing human R408W PAH; 24 hrs compound incubation; 13C-Tyrosine by LC-MS; average where tested multiple times; read-out: AC50
row,Compound,AC50
1,"CC(C)n1ncc(C(=O)N2CCc3[nH]cnc3[C@H]2c2nc3c(F)cccc3s2)c1C(F)F [Example 2001, (S)-(5-(difluoromethyl)-1-isopropyl-1H-pyrazol-4-yl)(4-(4-fluorobenzo[d]thiazol-2-yl)-6,7-dihydro-1H-imidazo[4,5-c]pyridin-5(4H)-yl)methanone]",< 0.5 µM
2,"CC(C)n1ncc(C(=O)N2CCc3[nH]cnc3[C@@H]2c2nc3c(F)cccc3s2)c1C(F)F [Example 2002, (R)-(5-(difluoromethyl)-1-isopropyl-1H-pyrazol-4-yl)(4-(4-fluorobenzo[d]thiazol-2-yl)-6,7-dihydro-1H-imidazo[4,5-c]pyridin-5(4H)-yl)methanone]",1 to 5 µM
3,"O=C(c1cn(CC2CC(F)(F)C2)nc1Cl)N1CCc2[nH]cnc2[C@H]1c1nc2c(F)cccc2s1 [Example 2003, (S)-(3-chloro-1-((3,3-difluorocyclobutyl)methyl)-1H-pyrazol-4-yl)(4-(4-fluorobenzo[d]thiazol-2-yl)-6,7-dihydro-1H-imidazo[4,5-c]pyridin-5(4H)-yl)methanone]",< 0.5 µM
4,"O=C(c1cn(CC2CC(F)(F)C2)nc1Cl)N1CCc2[nH]cnc2[C@@H]1c1nc2c(F)cccc2s1 [Example 2004, (R)-(3-chloro-1-((3,3-difluorocyclobutyl)methyl)-1H-pyrazol-4-yl)(4-(4-fluorobenzo[d]thiazol-2-yl)-6,7-dihydro-1H-imidazo[4,5-c]pyridin-5(4H)-yl)methanone]",1 to 5 µM
5,CC(C)(c1nc(C(F)F)c(C(=O)N2CCc3[nH]cnc3[C@H]2c2nc3c(F)cccc3s2)o1)S(C)(=O)=O [Example 2005],< 0.5 µM
6,"CC(C)(c1nc(C(F)F)c(C(=O)N2CCc3[nH]cnc3[C@@H]2c2nc3c(F)cccc3s2)o1)S(C)(=O)=O [Example 2006, (R)-(4-(difluoromethyl)-2-(2-(methylsulfonyl)propan-2-yl)oxazol-5-yl)(4-(4-fluorobenzo[d]thiazol-2-yl)-6,7-dihydro-1H-imidazo[4,5-c]pyridin-5(4H)-yl)methanone]",1 to 5 µM
7,CC(F)(F)c1ncoc1C(=O)N1CCc2[nH]cnc2[C@H]1c1nc2c(F)cccc2s1 [Example 2007],< 0.5 µM
8,"CC(F)(F)c1ncoc1C(=O)N1CCc2[nH]cnc2[C@@H]1c1nc2c(F)cccc2s1 [Example 2008, (R)-(4-(1,1-difluoroethyl)oxazol-5-yl)(4-(4-fluorobenzo[d]thiazol-2-yl)-6,7-dihydro-1H-imidazo[4,5-c]pyridin-5(4H)-yl)methanone]",1 to 5 µM
9,"Cc1cccc2sc([C@@H]3c4nc[nH]c4CCN3C(=O)c3ocnc3C(F)(F)F)nc12 [Example 2009, (S)-(4-(4-methylbenzo[d]thiazol-2-yl)-6,7-dihydro-1H-imidazo[4,5-c]pyridin-5(4H)-yl)(4-(trifluoromethyl)oxazol-5-yl)methanone]",< 0.5 µM
10,"Cc1cccc2sc([C@H]3c4nc[nH]c4CCN3C(=O)c3ocnc3C(F)(F)F)nc12 [Example 2010, (R)-(4-(4-methylbenzo[d]thiazol-2-yl)-6,7-dihydro-1H-imidazo[4,5-c]pyridin-5(4H)-yl)(4-(trifluoromethyl)oxazol-5-yl)methanone]",0.5 to 1 µM
11,Cc1cccc2sc([C@@H]3c4nc[nH]c4CCN3C(=O)c3ocnc3C(F)F)nc12 [Example 2011],< 0.5 µM
12,"Cc1cccc2sc([C@H]3c4nc[nH]c4CCN3C(=O)c3ocnc3C(F)F)nc12 [Example 2012, (R)-(4-(difluoromethyl)oxazol-5-yl)(4-(4-methylbenzo[d]thiazol-2-yl)-6,7-dihydro-1H-imidazo[4,5-c]pyridin-5(4H)-yl)methanone]",1 to 5 µM
13,"Cc1cccc2sc([C@@H]3c4nc[nH]c4CCN3C(=O)c3cnco3)nc12 [Example 2013, (S)-(4-(4-methylbenzo[d]thiazol-2-yl)-6,7-dihydro-1H-imidazo[4,5-c]pyridin-5(4H)-yl)(oxazol-5-yl)methanone]",0.5 to 1 µM
14,"Cc1cccc2sc([C@H]3c4nc[nH]c4CCN3C(=O)c3cnco3)nc12 [Example 2014, (R)-(4-(4-methylbenzo[d]thiazol-2-yl)-6,7-dihydro-1H-imidazo[4,5-c]pyridin-5(4H)-yl)(oxazol-5-yl)methanone]",> 5 µM
15,Cc1cccc2sc([C@@H]3c4nc[nH]c4CCN3C(=O)c3ncnn3C)nc12 [Example 2015],0.5 to 1 µM
16,"Cc1cccc2sc([C@H]3c4nc[nH]c4CCN3C(=O)c3ncnn3C)nc12 [Example 2016, (R)-(1-methyl-1H-1,2,4-triazol-5-yl)(4-(4-methylbenzo[d]thiazol-2-yl)-6,7-dihydro-1H-imidazo[4,5-c]pyridin-5(4H)-yl)methanone]",> 5 µM
17,"O=C(c1cnn(CC(F)F)c1Cl)N1CCc2[nH]cnc2[C@H]1c1nc2c(F)cccc2s1 [Example 2017, (S)-(5-chloro-1-(2,2-difluoroethyl)-1H-pyrazol-4-yl)(4-(4-fluorobenzo[d]thiazol-2-yl)-6,7-dihydro-1H-imidazo[4,5-c]pyridin-5(4H)-yl)methanone]",< 0.5 µM
18,"O=C(c1cnn(CC(F)F)c1Cl)N1CCc2[nH]cnc2[C@@H]1c1nc2c(F)cccc2s1 [Example 2018, (R)-(5-chloro-1-(2,2-difluoroethyl)-1H-pyrazol-4-yl)(4-(4-fluorobenzo[d]thiazol-2-yl)-6,7-dihydro-1H-imidazo[4,5-c]pyridin-5(4H)-yl)methanone]",1 to 5 µM
19,"Cc1cccc2sc([C@@H]3c4nc[nH]c4CCN3C(=O)c3ocnc3C#N)nc12 [Example 2019, (S)-5-(4-(4-methylbenzo[d]thiazol-2-yl)-4,5,6,7-tetrahydro-1H-imidazo[4,5-c]pyridine-5-carbonyl)oxazole-4-carbonitrile]",< 0.5 µM

# Second part, the molecule after the results:
row,AC50,Compound
1,> 5 µM,"Cc1cccc2sc([C@H]3c4nc[nH]c4CCN3C(=O)c3ocnc3C#N)nc12 [Example 2020, (R)-5-(4-(4-methylbenzo[d]thiazol-2-yl)-4,5,6,7-tetrahydro-1H-imidazo[4,5-c]pyridine-5-carbonyl)oxazole-4-carbonitrile]"
2,0.5 to 1 µM,Cc1cccc2sc([C@@H]3c4nc[nH]c4CCN3C(=O)c3ccnn3C)nc12 [Example 2021]
3,< 0.5 µM,"CN1CCN(c2nc(C(F)F)c(C(=O)N3CCc4[nH]cnc4[C@H]3c3nc4c(F)cccc4s3)o2)CC1 [Example 2023, (S)-(4-(difluoromethyl)-2-(4-methylpiperazin-1-yl)oxazol-5-yl)(4-(4-fluorobenzo[d]thiazol-2-yl)-6,7-dihydro-1H-imidazo[4,5-c]pyridin-5(4H)-yl)methanone]"
4,1 to 5 µM,"CN1CCN(c2nc(C(F)F)c(C(=O)N3CCc4[nH]cnc4[C@@H]3c3nc4c(F)cccc4s3)o2)CC1 [Example 2024, (R)-(4-(difluoromethyl)-2-(4-methylpiperazin-1-yl)oxazol-5-yl)(4-(4-fluorobenzo[d]thiazol-2-yl)-6,7-dihydro-1H-imidazo[4,5-c]pyridin-5(4H)-yl)methanone]"
5,< 0.5 µM,"O=C(c1oc(N2CCOCC2)nc1C(F)F)N1CCc2[nH]cnc2[C@H]1c1nc2c(F)cccc2s1 [Example 2025, (S)-(4-(difluoromethyl)-2-morpholinooxazol-5-yl)(4-(4-fluorobenzo[d]thiazol-2-yl)-6,7-dihydro-1H-imidazo[4,5-c]pyridin-5(4H)-yl)methanone]"
6,1 to 5 µM,"O=C(c1oc(N2CCOCC2)nc1C(F)F)N1CCc2[nH]cnc2[C@@H]1c1nc2c(F)cccc2s1 [Example 2026, (R)-(4-(difluoromethyl)-2-morpholinooxazol-5-yl)(4-(4-fluorobenzo[d]thiazol-2-yl)-6,7-dihydro-1H-imidazo[4,5-c]pyridin-5(4H)-yl)methanone]"
7,< 0.5 µM,CC(C)(C#N)c1nc(C(F)F)c(C(=O)N2CCc3[nH]cnc3[C@H]2c2nc3c(F)cccc3s2)o1 [Example 2027]
8,< 0.5 µM,"CC(C)(C#N)c1nc(C(F)F)c(C(=O)N2CCc3[nH]cnc3[C@@H]2c2nc3c(F)cccc3s2)o1 [Example 2028, (R)-2-(4-(difluoromethyl)-5-(4-(4-fluorobenzo[d]thiazol-2-yl)-4,5,6,7-tetrahydro-1H-imidazo[4,5-c]pyridine-5-carbonyl)oxazol-2-yl)-2-methylpropanenitrile]"
9,0.5 to 1 µM,"Cc1cccc2sc([C@@H]3c4nc[nH]c4CCN3C(=O)c3cnn(C)c3C(F)F)nc12 [Example 2029, (S)-(5-(difluoromethyl)-1-methyl-1H-pyrazol-4-yl)(4-(4-methylbenzo[d]thiazol-2-yl)-6,7-dihydro-1H-imidazo[4,5-c]pyridin-5(4H)-yl)methanone]"
10,< 0.5 µM,"CN1CCN(c2nc(Br)c(C(=O)N3CCc4[nH]cnc4[C@H]3c3nc4c(F)cccc4s3)o2)CC1 [Example 2031, (S)-(4-bromo-2-(4-methylpiperazin-1-yl)oxazol-5-yl)(4-(4-fluorobenzo[d]thiazol-2-yl)-6,7-dihydro-1H-imidazo[4,5-c]pyridin-5(4H)-yl)methanone]"
11,1 to 5 µM,"CN1CCN(c2nc(Br)c(C(=O)N3CCc4[nH]cnc4[C@@H]3c3nc4c(F)cccc4s3)o2)CC1 [Example 2032, (R)-(4-bromo-2-(4-methylpiperazin-1-yl)oxazol-5-yl)(4-(4-fluorobenzo[d]thiazol-2-yl)-6,7-dihydro-1H-imidazo[4,5-c]pyridin-5(4H)-yl)methanone]"
12,< 0.5 µM,O=C(c1oc(N2CCOCC2)nc1Br)N1CCc2[nH]cnc2[C@H]1c1nc2c(F)cccc2s1 [Example 2033]
